Experimental data: US5705693A, “Cationic lipids” (Gilead Sciences, Inc., priority 1995, dated 1998)

Assays:
[1] = tested on: CV-1 cells; assay: Transfection of CV-1 cells with five 35:DOPE preparations (Example 20); type: cell-based, African green monkey; settings: 35:DOPE 2:1, 1 μg lipid, 6 h, 10% FBS; in words
Description: Lipid complexes consisting of 35:DOPE (2:1 molar ratio) were prepared as follows. Two molar equivalents of 35 in CHCl3 and one equivalent of DOPE in CHCl3 was dried under reduced pressure by rotovap at room temperature. Deionized water was then added to give 1 mg/mL of total lipid. 10 mL of water containing 10 mg of lipid was vortexed for 5 minutes in a 100 mL round bottom flask. 2 mL aliquots were then used to prepare lipid suspensions for complexing with ODN1. The first preparation was obtained by directly using the vortexed 2 mL aliquot to prepare complexes with ODN1. The second preparation was obtained by 6 cycles of freezing on dry ice and thawing in a 37° C. water bath (Baxter, Dura Bath). The third preparation was obtained by placing a culture tube containing the lipid into a Ultra Sonik 100 (NEY) sonicator and the preparation was sonicated for 30 minutes at room temperature using the probe tip at maximum power. The fourth preparation was obtained by 6 cycles of freezing on dry ice and thawing in a 37° C. water bath, followed by filtering the suspension through a Lipofast™ 100 nm filter according to the manufacturer's instructions to obtain complexes less than about 100 nm in diameter. The fifth preparation was obtained by sonication for 10 minutes in a sonication bath followed by 5 sonication pulses for 15 seconds each with a probe sonicator (Sonifier 250, Branson Ultrasonics). […]

[2] = Transfection of CV-1 cells with ODN1 and toxicity (Example 22); type: cell-based, African green monkey; settings: monkey, cv-1 cells; 10.0 μg lipid
Description: (§1) Lipids 35, 52, 54 and 55 were each prepared using a 2:1 lipid:DOPE molar ratio as follows. Two molar equivalents of each lipid in CHCl3 and one equivalent of DOPE in CHCl3 was dried under reduced pressure by rotovap at room temperature. Deionized water was then added to give 1 mg/mL of total lipid. 10 mL of water containing 10 mg of lipid was vortexed for 5 minutes in a 100 mL round bottom flask. 2 mL aliquots were then used to prepare lipid suspensions for complexing with ODN1. Each preparation was obtained by 6 cycles of freezing on dry ice and thawing in a 37° C. water bath.

[3] = tested on: CV-1 cells; assay: as above; type: cell-based, African green monkey; settings: for % cells transfected: 2:1 DOPE, 6 h, 10% FBS, 250 pmole ODN1
Description: as §1

[4] = tested on: cdc-2 kinase; assay: cdc-2 antisense oligonucleotide analog transfection, Western blot (Example 22); type: cell-based, African green monkey; settings: 30 nM cdc-2 antisense oligonucleotide analog, 2.5 and 5.0 μg lipid
Description: The oligonucleotide contained 5-(1-propynyl)cytosine in place of cytosine and 5-(1-propynyl)uracil in place of uracil. A control oligonucleotide analog having a mismatched base sequence was also used to check for any non-specific effect on cdc-2 kinase levels in the transfected cells caused by the oligonucleotide analog. A control containing only lipid was also used as a control. […] Protein levels were examined by Western blot analysis.

[5] = tested on: cells; assay: Amount of fluorescently labeled oligonucleotide delivered versus commercially available lipids; type: cell-based; settings: observed fluorescence intensity, estimated
Description: The difference in transfection efficiency between lipids described herein and commercially available lipids is usually most pronounced when the transfections are done in the presence of medium containing serum. The amount of polyanion delivered into cells was estimated to be about 2- to 100-fold greater for lipids 30, 34 and 35 based on the observed fluorescence intensity of transfected cells after transfection using a fluorescently labeled oligonucleotide. The cationic lipids described herein also transfect some cell types that are not detectably transfected by commercial lipids, particularly where the transfection is conducted in the presence of serum.

[6] = Transfection of Caco-2 cells with ODN1 using 34 (Example 12); type: cell-based, human; settings: human, caco-2 cells; Caco-2, 5.0 μg lipid; read-out: toxicity
Description: (§2) Preparation of lipid-nucleic acid complexes and cell transfection.
(§3) SK-BR-3, Caco-2, Caov-3 and MCF7 cells were transfected with ODN1 using 34 which was prepared as described in Example 5 using a 1:1 molar ratio of DOPE colipid. The sonicated lipid-colipid mixture (1 mL of a 2.5, 5 or 10 μg/mL suspension) was mixed with 250 pmole ODN1 and allowed to stand […] at room temperature […] before adding 1 mL of the lipid-ODN1 complex to the cells. The lipid-ODN1 complex was removed from the cells after 6 hours by washing the cells twice in PBS, followed by observing the cells in serum-containing medium immediately after removing the lipid-ODN1 complex.

[7] = tested on: Caco-2 cells; assay: as above; type: cell-based, human; settings: 6 h, 1:1 DOPE
Description: as §2, §3

[8] = Transfection of Caov-3 cells with ODN1 using 34 (Example 12); type: cell-based, human; settings: human, caov-3 cells; Caov-3, 10.0 μg lipid; read-out: toxicity
Description: as §2, §3

[9] = tested on: Caov-3 cells; assay: as above; type: cell-based, human; settings: 6 h, 1:1 DOPE
Description: as §2, §3

[10] = tested on: MCF7 cells; assay: Transfection of MCF7 cells with ODN1 using 34 (Example 12); type: cell-based, human; settings: 6 h, 1:1 DOPE
Description: as §2, §3

[11] = tested on: SK-BR-3 cells; assay: Transfection of SK-BR-3 cells with ODN1 using 34 (Example 12); type: cell-based, human; settings: 6 h, 1:1 DOPE
Description: as §2, §3

[12] = tested on: CV-1 cells; assay: Transfection of CV-1 cells with CAT RNA (Example 16); type: cell-based, African green monkey; settings: 2.5 μg RNA, 5 μg lipid, 24 h, DMEM 10% FBS or Optimem
Description: CV-1 cells were transfected for 24 hours with RNA encoding chloramphenicol acetyltransferase (CAT). The transfections used 2.5 μg of RNA, 5 μg of 34 and DMEM with 10% FBS or Optimem™ with no serum. CAT activity was measured by immunofluorescence staining using fluorescent labeled anti-CATantibodies (5',3'Inc.). The cells were observed as previously described (Wagner, Science (1993) 260:1510).

[13] = tested on: T antigen; assay: Antisense inhibition of T antigen expression in CV-1 cells with ODN2A (Example 19); type: cell-based, African green monkey
Description: ODN2A, which was ODN2 lacking the fluorescent label at the 3' terminus, was used as an antisense oligonucleotide to inhibit T antigen expression in CV-1 cells using the protocol previously described (Wagner Science (1993) 260:1510-1513). CV-1 cells were transfected for 18 hours using 5 μg of 34 (1:1 molar ratio with DOPE colipid) and then cell nuclei were microinjected with T antigen plasmid using a needle concentration of 0.003 μg/mL of T antigen plasmid (ibid at page 1513, first column, note 5) and 0.025 μg/mL of β-galactosidase plasmid. The cells were scored for T antigen expression 4.5 hours after removing the transfection preparation from the cells. The cells were immunostained for β-galactosidase expression as an internal control for microinjected cells and the proportion of cells expressing both T antigen and β-galactosidase was determined.

[14] = tested on: cells; assay: Transfection with filtered preparations; type: cell-based; settings: 1:1 DOPE, sonicated
Description: The invention cationic lipids 30 or 34 and DOPE colipid (1:1) were prepared by sonication and then filtered using 200, 100 or 50 nm filters to obtain particles less than about 200 nm in diameter, less than about 100 nm and less than about 50 nm. […] The 50 nm filtered preparations were about 40-50% as efficient as the preparations containing larger particles. The size of the particles or miscelles in a given preparation will vary depending on the preparation method. Sonicating cationic lipid-colipid mixtures will provide smaller miscelles and vortexing will provide larger miscelles (Felgner J. Biol. Chem. (1994) 269:2550-2561). Such miscelles are believed to transfer the polyanion into the cytoplasm of a eukaryotic or prokaryotic cell by pinocytosis, endocytosis and/or by direct fusion with the plasma membrane.

CCCCCCCCCCCCCCN(CCCCCCCCCCCCCC)C(=O)CNC(=O)[C@@H](N)CCCNC(=N)NC(=O)OC(C)(C)C [Compound 35]
transfection of CV-1 cells, all preparations [1]: efficiently transfected CV-1 cells
cytotoxicity at 6 h [2]: > 40%
% cells transfected ([3]; 1 μg lipid): 40%
% cells transfected ([3]; 2.5 μg lipid): 85%
% cells transfected ([3]; 5.0 μg lipid): 100%
% cells transfected ([3]; 10.0 μg lipid): 60%
uniformity of cell staining ([3]; footnote, in words): relatively uniformly stained
cdc-2 protein levels [4]: efficiently reduced cdc-2 protein levels
amount of polyanion delivered into cells relative to commercially available lipids [5]: 2- to 100 fold

CCCCCCCCCCCCCCCCCCN(CCCCCCCCCCCCCCCCCC)C(=O)CNC(=O)[C@@H](N)CCCNC(=N)NC(=O)OC(C)(C)C [Compound 34]
cytotoxicity at 6 h [6]: < 10%
% transfected ([7]; Caco-2, 2.5 μg lipid): < 5%
% transfected ([7]; Caco-2, 5.0 μg lipid): 10-15%
% transfected ([7]; Caco-2, 10.0 μg lipid): 0%
cytotoxicity at 6 h [8]: < 10%
% transfected ([9]; Caov-3, 2.5 μg lipid): 20%
% transfected ([9]; Caov-3, 5.0 μg lipid): 20%
% transfected ([9]; Caov-3, 10.0 μg lipid): 61%
% transfected ([10]; MCF7, 2.5 μg lipid): 30-50%
% transfected ([10]; MCF7, 5.0 μg lipid): 83%
% transfected ([10]; MCF7, 10.0 μg lipid): 80%
% transfected ([11]; SK-BR-3, 2.5 μg lipid): 60-70%
% transfected ([11]; SK-BR-3, 5.0 μg lipid): > 90%
% transfected ([11]; SK-BR-3, 10.0 μg lipid): > 90%
cells expressing CAT [12]: 1-2%
efficiency in delivering ODN2A into cells compared with Lipofectin ([13]; 5 μg, 1:1 DOPE, 18 h, ODN2A needed to inhibit T antigen expression to an equal extent): about 10 fold
delivery of antisense oligomer ([13]; in words): efficiently delivered the antisense oligomer into the cells without interfering with the capacity of the oligonucleotide to inhibit gene (protein) expression
amount of polyanion delivered into cells relative to commercially available lipids [5]: 2- to 100 fold
transfection efficiency of 50 nm filtered preparations relative to larger particles ([14]; 50 nm filter): 40-50%
transfection efficiency of 200 nm or 100 nm filtered preparations ([14]; in words): the most efficient (and equally efficient)
